Patent EP0612845A2 (priority 1993, dated 1994)
Like-named read-outs stand apart in the source and are kept apart here.

How the values were obtained:
[1] = molecular target: T1, m-opiate receptor (mOR) cDNA RC8-1 expressed in COS cells (Rattus norvegicus, UniProt P33535); format: binding
T1 construct: expressed in transfected cells; host or cells: COS cells, transient electroporation with pcDNA1RC8-1; membranes

[2] = molecular target: rat brain opioid receptor; assay: Competition with [125I]b-endorphin for binding to rat brain membranes (analytical microtiter plate assay)
Experimental: Whole male rat brains frozen in liquid N₂ are purchased from Pel-Freez (Rogers, AR). All procedures for membrane preparation are carried out at a temperature of 2-6 °C. The brains are homogenized in a Waring blender in a buffer containing 1 mM Na-bicarbonate (pH 7.2), 1 mM EDTA, 1 mM EGTA (all chemicals from Sigma Chemical, St. Louis, MO) and 0.7% (vol./vol.) of the 100X 4Pase protease inhibitor mixture (see "Protease Inhibitors" below). The ratio of tissue/homogenization medium is from 25-35 gm of brain/500 ml. The blender is controlled through a variable output rheostat (Staco Energy Products, Dayton, OH; type 3PN1010) at a setting of 40. The homogenate is centrifuged for 10 minutes at 1,000 x g pellet is rehomeginized in 500 ml of homogenization medium and recentrifuged for 10 minutes at 1,000 x g. The 1,000 x g pellet is discarded. The 1,000 x g supernatants are combined and centrifuged for 30 minutes at 20,000 x g. The 20,000 x g membrane pellet is washed by being resuspended with a Dounce homogenizer in 500 ml of homogenization medium supplemented with 10 mM EDTA (pH readjusted to 7.4) and then washed twice by being resuspended in 25 mM Tris buffer (Sigma Chemical Co.; pH 7.4) and centrifuged for 25 minutes at 20,000 x g. The final membrane pellet is resuspended in 25 mM inhibitor mixture to a protein concentration of 4-12 mg/ml. The resuspended membranes are aliquoted, frozen on dry ice and stored at -90 °C.
Binding of [¹²⁵I]-labelled b-endorphin, b-endorphin and other b-endorphin analogs and opioids is done in a binding buffer containing 50 mM HEPES (Sigma; pH 7.4; pHed with KOH), 0.1% (w/v) bovine serum albumin (Miles Laboratories, Elkhart, IN) and protease inhibitors as specified below for specific applications. All binding incubations are carried out at room temperature (20-23 °C). • A. Analytical - This assay is carried out in 96 well microtiter plates (Immulon II with snap-off wells; Dynatech, Chantille, VA). To carry out the assay, the following components are added to the wells in the order and volumes shown: (1) […] of nonlabelled ligand. For this purpose, ligands (for example b-endorphin or biotinylated b-endorphin) are made up at 40X the desired final concentration in the 40X P/B/Pz protease inhibitor mixture (Experimental Procedures. 4.C.) (2) […] of [¹²⁵I]b-endorphin in binding buffer + 1/100 volume of the 100X 4Pase protease inhibitor mixture; mix briefly on a microtiter plate shaker (Dynatech Micro-Shaker II, Dynatech, Chantilly, VA). (3) […] of rat brain membrane diluted in binding buffer + […] volume of 100X 4Pase to deliver […] of membrane protein per well. The plates are then covered with Linbro Mylar plate sealers (Flow Labs, McLean, VA) and incubated for 1 hour at room temperature (20-23 °C). The membranes are pelleted by centrifugation at 2,000 x g, the supernatants (containing nonbound ligands) are decanted and the pellets are washed by the addition of […] of ice cold binding buffer, brief shaking and recentrifugation. CPM of [¹²⁵I] in the final membrane pellets is then counted in a gamma counter (LKB Gammamaster 1277; 80% efficiency). • B. Preparative - Rat brain membranes are diluted to a concentration of 0.5 mg of membrane protein/ml in binding buffer containing 1/400 (vol./vol.) of the 400X P/B/Bz protease inhibitor mixture (see Section 4). […] In this case, the blocking ligand is added from 5-15 minutes prior to the addition of biotinyl-b-endorphin. In some cases only the blocking ligand is added. […]

[3] = molecular target: T1, m-opiate receptor (mOR) cDNA RC8-1 expressed in COS cells; format: binding; remark: listed apart in the source
[4] = system: [¹²⁵I]b-Endorphin: Opioid Receptor Complex; assay: Dissociation of the solubilized R:L complex, measured by binding to WGA-agarose; format: biochemical, rat
[5] = competition with [¹²⁵I]b-endorphin, rat brain membranes, read-out: IC₅₀s for reduction of radioligand binding by competition with cold ligand
[6] = reanalysis, F1 fraction heated at 50°C for 5 min, read-out: IC50 for binding to receptors in rat brain membranes by competition vs. [¹²⁵I]b-endorphin (reanalysis)

T1 sequence (P33535 whole entry): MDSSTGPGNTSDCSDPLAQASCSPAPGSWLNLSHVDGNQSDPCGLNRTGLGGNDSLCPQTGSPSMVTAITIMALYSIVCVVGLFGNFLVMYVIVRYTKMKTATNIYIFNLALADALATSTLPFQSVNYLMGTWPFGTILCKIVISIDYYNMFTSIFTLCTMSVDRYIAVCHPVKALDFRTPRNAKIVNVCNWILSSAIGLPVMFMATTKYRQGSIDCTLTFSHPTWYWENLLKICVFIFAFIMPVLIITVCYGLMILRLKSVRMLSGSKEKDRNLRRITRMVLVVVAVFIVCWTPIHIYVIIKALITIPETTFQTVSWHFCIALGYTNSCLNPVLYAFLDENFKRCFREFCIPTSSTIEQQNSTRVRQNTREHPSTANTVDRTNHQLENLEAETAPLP

For NaCl, the “effect of addition to incubations on [³H]DAMGO binding” value [1] was “reduced”.

“[biotinyl-Lys³²]b-endorphin [biotinyl-b-endorphin (F1)]” showed an IC50 [2, 5] of 1 nM.

With “[biotinyl-Lys³²]b-endorphin [biotinyl-b-endorphin (F2)]” the IC50 [2, 5] was 5 nM.

b-endorphin showed an IC50 [2, 5] of 1 nM and an IC50 [2, 6] of 1.2 nM.

With `CN1CC[C@]23c4c5ccc(O)c4O[C@H]2[C@@H](O)C=C[C@H]3[C@H]1C5` [Morphine] the “potency in displacing binding of [³H]DAMGO” value (“potency in displacing binding” for short) [3] was “high potency”.

With `CCC12CCN(CC3(O)CC3)C(Cc3ccc(O)cc31)C2(C)C` (centres unmarked) [bromazocino] the “potency in displacing binding” value [3] was “high potency”.

In the case of `Nc1nc2c(ncn2[C@@H]2O[C@H](COP(=O)(O)OP(=O)(O)OP(O)(O)=S)[C@@H](O)[C@H]2O)c(=O)[nH]1` [GTP-g-S], the “dissociation of receptor from ligand” value ([4]; GTP analog alone, without NaCl) is reported as “about 30%”, the “% Decrease in R:L Complex” value ([4]; Table 1, 100 mM GTP-g-S, 10 minutes at room temperature) is reported as 34% and the “% Decrease in R:L Complex” value ([4]; Table 2, 100 mM GTP-g-S + 25 mM NaCl) is reported as 77%. The “% Decrease in R:L Complex” value ([4]; Table 2, 100 mM GTP-g-S + 50 mM NaCl) was 90%, the “% Decrease in R:L Complex” value ([4]; Table 2, 100 mM GTP-g-S + 100 mM NaCl) was 93% and the “% Decrease in R:L Complex” value ([4]; Table 2, 100 mM GTP-g-S alone) was 24%.

“[biotinyl-Lys³²]b-endorphin [biotinyl-b-endorphin]” was tested, and the IC50 [2, 6] was 1.8 nM.

ethylketocyclazocino was tested, and the “potency in displacing binding” value [3] was “high potency”.

In the case of `Nc1nc2c(ncn2[C@@H]2O[C@H](COP(=O)(O)OP(=O)(O)OP(=O)(O)O)[C@@H](O)[C@H]2O)c(=O)[nH]1` [GTP], the “effect of addition to incubations on [³H]DAMGO binding” value [1] is reported as “reduced”.

For `CN1CC[C@]23CCCC[C@H]2[C@H]1Cc1ccc(O)cc13` [levorphan], the “potency in displacing [³H]DAMGO binding relative to the pharmacologically inactive isomer” value [3] was “substantially greater potency”.
